Source: patent US20060122153A1, “Antineoplastic ether lipid compounds with modifications at the sn-2 carbon” (priority 2003, published 2006)
Where “and” joins values, the source holds several entries; their conditions need not be identical. Identical values can stand only once. Like-named read-outs stand apart in the source and are kept apart here.

What was measured:
[1] = system: DEVDase activity (Caspase 3) in Jurkat T cells; assay: DEVDase activity in Jurkat T cells; type: cell-based; conditions: for % L-ET18OCH3 (DEVDase, 6 hrs): Jurkat T cells; for DEVDase activity compared to ET-18-OCH3 (in words): Jurkat T cell line
Protocol: Suspension cells were seeded at density 3.2×10^5 cells per mL in RPMI-1640 medium (Bio-Whittaker) supplemented with 10% heat inactivated FBS (Bio-Whittaker). Cells were pre-incubated overnight prior to treatment with the ether lipid compounds of the invention. At treatment time cell density was 5×10^5 cells per mL. Cells were incubated with the ether lipid compounds of the invention for various periods of time, usually 6 hours. Cells were collected, washed with 1×DPBS and resuspended in 110 μl of Buffer A (10 mM BEPES-KOH, pH 7.4, 2 mM EDTA, 0.1% CHAPS, 5 mM DTT, 1:100 dilution of protease inhibitors cocktail (Sigma)-DTT and protease inhibitors should be added just before use). After 10 min incubation on ice in order to lyse cells, samples were frozen on dry ice/ethanol and kept at −20° C. until analysis.
At the time of analysis of DEVDase activity frozen pellets were kept on ice until thawed and after vigorous vortexing samples were centrifuged at 14,000 rpm for 6 min.; Supernatant was transferred into another tube and 2 μl, in triplicates, were used for protein measurement using Bradford reagent (Bio-Rad).
Measurement of DEVDase activity was carried out in 100 μl volume, where 10 μg of protein was delivered in 50 μl of Buffer A and 40 μM of substrate Ac-DEVD-AMC was also delivered in 50 μl of Buffer A. All measurements were done in triplicates. Reaction was carried out for 1 hour and generation of fluorescent product of reaction (aminomethylcoumarin) was measured by reading fluorescence at 1em 460 nm (1ex 360 nm). Changes in DEVDase activity were calculated after subtraction of background fluorescence of substrate incubated without proteins, and were expressed as percent of control (DEVDase activity in untreated cells). Average of DEVDase activity, calculated from few independent experiments, was used to calculate percent of L-ether lipid-induced DEVDase activity.

[2] = system: WI38; conditions: for GI50: WI38 normal human fibroblast cell line, 3 days
Excerpt: (§1) The following cell lines were selected from the cell bank for screening and GI50 studies: MCF-7: human breast tumor, MCF-7/ADR: MCF-7 adriamycin resistant subline, HT-29: human colon carcinoma, A-549: human non-small cell lung cancer, NIH-3T3: mouse Swiss embryo fibroblast and WI-38: human lung fibroblast, SKMEL-28: human melanoma, Lewis Lung: mouse lung carcinoma, DU-145: prostate carcinoma, B16F10: mouse melanoma, L1210: murine lymphocytic leukemia, P-388: murine leukemia, U-937: human histolytic lymphoma. Except HT-29, WI-38, NIH-3T3 and Lewis Lung which were obtained from the American Type Culture Collection (Rockville, Md.) all the other cell lines were obtained from National Cancer Institute—Frederick Research Facility (Frederick, Md.). All the cell lines were grown in RPMI-1640 medium containing 10% fetal bovine serum (FBS) except WI-38 and DU-145 which were grown in EMEM+10% FBS at 37° C., 5% CO2 and 100% humidity and NIH-3T3, Lewis Lung, B16F10 and L1210 which were grown in DMEM containing 10% FBS (10% HS for L1210). All the adherent cell lines were detached from the culture flasks by addition of 2-3 ml of 0.05% trypsin-EDTA. Thereafter, trypsin was inactivated by addition of 10 mL of 10% serum-containing RPMI-1640 medium. Cells were separated into a single-cell suspension by gentle pipetting action. Depending on the cell type, […] to 10,000 cells were plated onto 96-well plates a day prior to the drug treatment, in a volume of 100 μl per well.
(§2) The test compounds were made in-house and the compounds were dissolved PBS or saline at a stock concentration of approximately 20 mM, which is 400 times the desired final maximum test concentration. The stock solutions were then diluted with complete medium to twice the desired final concentration. 100 μl aliquots of each dilution was then added to the designated wells. After 3 days of incubation, cell growth was determined.
(§3) The SRB assay was performed as described by Monks, A., Scudiero, D., Skehan, P., Shoemaker, R., Paull, K., Vistica, D., Hose, C., Langley, J., Cronise, P., and Vaigro-Wolff, A. Feasibility of a high-flux anticancer drug screen using a diverse panel of cultured human tumo-r cell lines. J Natl Cancer Inst, 83: 757-766, 1991 with minor modifications. Following drug treatment, cells were fixed with 50 μl of cold 50% (wt/vol) trichloroacetic acid (TCA) for 60 minutes at 4° C. The supernatant was discarded, and the plates were washed six times with deionized water and then air dried. The precipitate was stained with 100 μl SRB solution (0.4% wt/vol in 1% acetic acid) for 10 minutes at room temperature, and free SRB was removed by washing three times with 1% acetic acid, and the plates were then air dried. Bound SRB was solubilized with Tris buffer (10 mM), and the ODs were read using an automated plate reader (Bio-Rad, Model 3550-UV) at 490 nm. Background values were subtracted from the test data, and the data was calculated as a % of control. […] Percentage growth was calculated as described by, Peters, A. C., Ahmad, I., Janoff, A. S., Pushkareva, M. Y., and Mayhew, E. Growth Inhibitory effects of liposome-associated 1-o-octadecyl-2-o-methyl-sn-glycero-3-phosphocholine. Lipids, 32:1045-1054, 1997. The raw optical density data Was imported into an Excel spreadsheet to determine dose responses. […] By varying drug concentration,-dose response curves were generated and the GI-50 values were calculated. The GI50 values for each experiment were calculated using data obtained from three duplicate wells on two separate plates.
(§4) For growth inhibitory evaluation, we used five human tumor cell lines (U937; HT29; A549; MCF7; MCF7/ADR) and two normal fibroblast cell lines (NIH-3T3, murine; WI-38, human).

[3] = system: MCF7/ADR; assay: In vitro growth inhibition (GI50), SRB assay; type: cell-based, human; conditions: MCF7/ADR tumor cell line, 3 days
Excerpt: as §1, §2, §3, §4

[4] = system: A549; assay: In vitro growth inhibition (GI50), SRB assay; type: cell-based, human; conditions: A549 tumor cell line, 3 days
Excerpt: as §1, §2, §3, §4

[5] = system: HT29; assay: In vitro growth inhibition (GI50), SRB assay; type: cell-based, human; conditions: HT29 tumor cell line, 3 days
Excerpt: as §1, §2, §3, §4

[6] = system: MCF7; assay: In vitro growth inhibition (GI50), SRB assay; type: cell-based, human; conditions: for GI50: MCF7 tumor cell line, 3 days; for effect on MCF7 growth compared to ET-18-OCH3 (in words): separate in-house study, Table 3
Excerpt: as §1, §2, §3, §4

Structure (SMILES)	% L-ET18OCH3 (DEVDase, 6 hrs) ([1]; 10 μM ether lipid)	% L-ET18OCH3 (DEVDase, 6 hrs) ([1]; 20 μM ether lipid)	% L-ET18OCH3 (DEVDase, 6 hrs) ([1]; 30 μM ether lipid)	DEVDase activity compared to ET-18-OCH3 (in words) [1]	cytotoxicity to normal human fibroblast as compared to ET-18-OCH3 (in words) [2]	GI50 [2]	GI50 [3]	GI50 [4]	GI50 [5]	GI50 [6]	effect on MCF7 growth compared to ET-18-OCH3 (in words) [6]	cytotoxicity to normal human fibroblast as compared to ET-18-OCH3 (in words) ([2]; WI-38)
CCCCCCCCCCCCCCCCCCOC[C@@H](COP(=O)([O-])OCC[N+](C)(C)C)OS(C)(=O)=O [1a′S]	58.9 ± 9.1%	55.5 ± 8.3%	61.3 ± 9.1%	less DEVDase activity than ET-18-OCH3	less cytotoxic	16.3 µM	39 µM	9.3 µM	2.6 µM	31.3 µM	appeared worse	
CCCCCCCCCCCCCCCCCCOCC(COP(=O)([O-])OCC[N+](C)(C)C)OS(C)(=O)=O (stereo not drawn) [Compound 1aR]	56.6 ± 8.3%	52.4 ± 8.6%	51.6 ± 8.1%	less DEVDase activity than ET-18-OCH3		40.9 µM	> 40 µM	6 µM and 6.6 µM	2.1 µM and 2.3 µM	24.3 µM and 26.4 µM	appeared worse	less cytotoxic
CCCCCCCCCCCCCCCCCCOCC(COP(=O)([O-])OCC[N+](C)(C)C)OC [D-ET18OCH3, 1-O-octadecyl-2-O-methyl-glycerophosphocholine, reference compound]	79.3 ± 9.7%	89.2 ± 12.2%	92.1 ± 11.8%			10 to 13.5 µM	25.1 µM	8 µM	5.1 µM	14.6 µM		
